In patent US8563516B2, “Foxp3 peptide vaccine” (OncoTherapy Science, Inc., priority 2007, dated 2013):

How the values were obtained:
HLA-A2 molecule = biological target: T1, HLA-A2 molecule (Homo sapiens, UniProt P04439, D140Y/D185E/D98H/E176V/E277Q/G131W/G231S/I119V/I121R/I166T/I218V/L300P/L318F/N151K/N90K/P208A/P217A/Q86G/Q94H/R138H/R169H/T345S); assay: CTL induction with Foxp3-9-252 substitutions restricted HLA-A*0201; type: cell-based; details: FIG. 7C; for IFN-gamma production compared with the control: positive wells
T1 construct: peripheral blood mononuclear cells (PBMCs) isolated from normal volunteer (HLA-A*2402 and/or HLA-A*0201); endogenous in cells; host or cells: monocyte-derived dendritic cells of HLA-A*0201 volunteers; T2 cells as stimulators in the read-out
Method: In FIG. 7C CTLs could be induced by stimulation with Foxp3-9-252 substitutions targeted HLA-A2 molecule. CTLs for all substituted peptides targeted HLA-A2 molecule were generated in the way as described in “Materials and Methods”. […] CTL line induced with Foxp3-9-252-9V peptide was used as responder cells. T2 cells incubated with Foxp3-9-252-9V (-solid circle-) or Foxp3-9-252-WT (-open circle-) peptide and without any peptide (-open square-) were used as stimulator cells in this assay (1×10^4 cells/well).
(§1) Monocyte-derived dendritic cells (DCs) were used as antigen-presenting cells (APCs) to induce CTL responses against peptides presented on HLA. DCs were generated in vitro as described elsewhere (Horiguchi S. et al. Cancer Res. 59:2950-6). Specifically, peripheral blood mononuclear cells (PBMCs) isolated from normal volunteer (HLA-A*2402 and/or HLA-A*0201) with Ficoll-Plaque (Pharmacia) solution were separated by adherence to plastic tissue culture dish (Becton Dickinson) so as to enrich them for the monocyte fraction. The monocyte-enriched population was cultured in the presence of 1000 U/ml of GM-CSF (R&D System) and 1000 U/ml of IL-4 (R&D System) in AIM-V medium (Invitrogen) containing 2% heat-inactivated autologous serum (AS). After 7 days in the culture, the cytokine-generated DCs were pulsed with 20 mcg/ml of the synthesized peptides in the presence of 3 mcg/ml of beta2-microglobulin for 4 hrs at 20 degrees C. in AIM-V medium. These peptide-pulsed DCs were then inactivated with mitomycin C (MMC) (30 mcg/ml for 30 mins) and mixed at a 1:20 ratio with autologous CD8+ T cells, obtained by positive selection with CD8 Positive Isolation Kit (Dynal). These cultures were set up in 48-well plates (Corning); each well contained 1.5×10^4 peptide-pulsed DCs, 3×10^5 CD8+ T cells and 10 ng/ml of IL-7 (R&D System) in 0.5 ml of AIM-V/2% AS. Three days later, these cultures were supplemented with IL-2 (CHIRON) to a final concentration of 20 IU/ml. On day 7 and 14, the T cells were further restimulated with the peptide-pulsed autologous DCs. The DCs were prepared each time through the same procedure described above. CTL activity was tested against peptide-pulsed A24LCL cells or T2 cells after the 3rd round of peptide stimulation on day 21.
(§2) To examine the specific CTL activity, IFN-gamma ELISPOT assay and IFN-gamma ELISA were performed. Briefly, peptide-pulsed A24-LCL, T2 cell (1×10^4/well) or the cells endogenously expressing Foxp3 and HLA molecule was prepared as a stimulator cells. Cultured CTL lines in 48 wells were used as a responder cells. IFN-gamma ELISPOT assay and IFN-gamma ELISA were performed under manufacture procedure.
On the other hand, the present inventers attempted the induction of CTLs using all substitutions restricted HLA-A*0201 including Foxp3-9-252-9V peptide. […] After CTL line induced by stimulation with Foxp3-9-252-9V was established by in vitro expansion, the CTL activity was determined by using stimulator cells pulsed with Foxp3-9-252-WT or Foxp3-9-252-9V peptide.

peptide-pulsed T2 cells = assay: IFN-gamma ELISPOT on CTLs induced with HLA-A0201 restricted Foxp3 peptides; type: cell-based, human; details: FIG. 2A/2B/2C
From the text: as §1, §2
Resulting CTLs showing detectable specific CTL activity were shown in FIG. 2A, FIG. 2B and FIG. 2C when performed by IFN-gamma ELISPOT assay.

[1] = tested on: peptide-pulsed A24LCL cells or T2 cells; assay: In vitro CTL induction by peptide-loaded dendritic cells (summary statements); type: cell-based, human; details: for specific CTL activity: against peptide pulsed target cells; for establishment of CTLs: in vitro stimulation of T-cells by DCs loaded with peptide
From the text: Confirmation of CTL inducibility can be accomplished by inducing antigen-presenting cells carrying human MHC antigens (for example, B-lymphocytes, macrophages, and dendritic cells), or more specifically dendritic cells derived from human peripheral blood mononuclear leukocytes, and after stimulation with the peptides, mixing with CD8-positive cells, and then measuring the IFN-gamma produced and released by CTL against the target cells. As the reaction system, transgenic animals that have been produced to express a human HLA antigen (for example, those described in BenMohamed L, Krishnan R, Longmate J, Auge C, Low L, Primus J, Diamond D J, Hum Immunol 61(8): 764-79, 2000 August, Related Articles, Books, Linkout Induction of CTL response by a minimal epitope vaccine in HLA A*0201/DR1 transgenic mice: dependence on HLA class II restricted T(H) response) can be used. For example, the target cells can be radiolabeled with ^51Cr and such, and cytotoxic activity can be calculated from radioactivity released from the target cells. Alternatively, it can be examined by measuring IFN-gamma produced and released by CTL in the presence of antigen-presenting cells that carry immobilized peptides, and visualizing the inhibition zone on the media using anti-IFN-gamma monoclonal antibodies.
as §1, §2

[2] = tested on: peptide-pulsed A24LCL cells; assay: IFN-gamma ELISPOT on CTLs induced with HLA-A2402 restricted Foxp3 peptides; type: cell-based, human; details: FIG. 1A/1B
From the text: as §1, §2
CTLs for the peptides derived from Foxp3 protein were generated according to the method described in the “Materials and Methods”, supra.

Sequence | IFN-gamma production of CTLs stimulated with peptide, compared with the control (peptide-pulsed T2 cells) | specific CTL activity [1] | establishment of CTLs [1] | IFN-gamma production of CTLs stimulated with peptide, compared with the control [2] | further results
KLMAMQAHL (peptide vaccine) [SEQ ID NO 97] |  |  |  |  | CTL induction by stimulation with substituted peptide (HLA-A2 molecule): CTLs were induced; IFN-gamma production compared with the control (HLA-A2 molecule; listed as Foxp3-9-252-3M): showed IFN-gamma production; IFN-gamma production compared with the control (HLA-A2 molecule; listed as Foxp3-A02-9-252-3M): peptide-dependent IFN-gamma production
LQLPTLPLV (peptide vaccine) [SEQ ID NO 16] | potent IFN-gamma production | significant and specific CTL activity | CTLs were successfully established |  | 
RTPVLQVHPL (peptide vaccine) [SEQ ID NO 12] |  | significant and specific CTL activity | CTLs were successfully established | potent IFN-gamma production | 
SYPLLANGV (peptide vaccine) [SEQ ID NO 9] |  | significant and specific CTL activity | CTLs were successfully established | potent IFN-gamma production | 
VMVAPSGARL (peptide vaccine) [SEQ ID NO 30] | potent IFN-gamma production | significant and specific CTL activity | CTLs were successfully established |  | 
TLNEIYHWFT (peptide vaccine) [SEQ ID NO 22] | potent IFN-gamma production | significant and specific CTL activity | CTLs were successfully established |  | 
IYHWFTRMF (peptide vaccine) [SEQ ID NO 3] |  | significant and specific CTL activity | CTLs were successfully established | potent IFN-gamma production | 
RPPFTYATL (peptide vaccine) [SEQ ID NO 8] |  | significant and specific CTL activity | CTLs were successfully established | potent IFN-gamma production | 
WFTRMFAFF (peptide vaccine) [SEQ ID NO 7] |  | significant and specific CTL activity | CTLs were successfully established | potent IFN-gamma production | 
VFEEPEDFL (peptide vaccine) [SEQ ID NO 4] |  | significant and specific CTL activity | CTLs were successfully established | potent IFN-gamma production | 
QLQLPTLPL (peptide vaccine) [SEQ ID NO 18] | potent IFN-gamma production | significant and specific CTL activity | CTLs were successfully established |  | 
LLQREMVQSL (peptide vaccine) [SEQ ID NO 28] | potent IFN-gamma production | significant and specific CTL activity | CTLs were successfully established |  | 
LVLEKEKLSA (peptide vaccine) [SEQ ID NO 37] | potent IFN-gamma production | significant and specific CTL activity | CTLs were successfully established |  | 
KMALTKASSV (peptide vaccine) [SEQ ID NO 24] | potent IFN-gamma production | significant and specific CTL activity | CTLs were successfully established |  | 
SLFAVRRHL (peptide vaccine) [SEQ ID NO 19] | potent IFN-gamma production | significant and specific CTL activity | CTLs were successfully established |  | 
GINVASLEWV (peptide vaccine) [SEQ ID NO 29] | potent IFN-gamma production | significant and specific CTL activity | CTLs were successfully established |  | 
KLLAMQAHL (peptide vaccine) [SEQ ID NO 98] |  |  |  |  | CTL induction by stimulation with substituted peptide (HLA-A2 molecule): CTLs were induced; IFN-gamma production compared with the control (HLA-A2 molecule; listed as Foxp3-9-252-3L): showed IFN-gamma production; IFN-gamma production compared with the control (HLA-A2 molecule; listed as Foxp3-A02-9-252-3L): peptide-dependent IFN-gamma production
KFHNMRPPF (peptide vaccine) [SEQ ID NO 5] |  | significant and specific CTL activity | CTLs were successfully established | potent IFN-gamma production | 
